In brackets after ≈: the same amount, converted by molar mass. Like-named read-outs stand apart in the source and are kept apart here.
Key:
HRV3 [1] = experiment: Antiviral activity, SRB method using CPE reduction, HRV3-infected HeLa cells; format: cell-based, human rhinovirus; details: for IC50: Human rhinovirus sp., HRV3, HeLa, HRV3 in HeLa cells, mean ± S.D., ND = maximum inhibition rate under 50%, read-out: IC50, concentration required to inhibit virus-induced cytopathic effect (CPE) by 50%; for antiviral activity against HRV3 (in words): HeLa cells
Description: (§1) HRV 2 and 3 were provided by the ATCC (American Type Culture Collection, Manassas, VA, USA) and were propagated in human epitheloid carcinoma cervix (HeLa) cells at 32 °C. HeLa cells were maintained in minimal essential medium (MEM) supplemented with 10% fetal bovine serum (FBS) and 0.01% antibiotic-antimycotic.
(§2) Assays of antiviral activity and cytotoxicity were evaluated by the SRB method using CPE reduction, recently reported. […] Next day, medium was removed and then washed with 1× phosphate buffered saline (PBS). Infectivity of virus stock was determined by the SRB method using cytopathic effect (CPE) reduction and was determined as infectivity of the virus by SRB ID50 (50% infective dose). […] The antiviral activity of each test material was determined with a 10-fold diluted concentration ranging from 0.1 to 100 μg/mL. Three wells were used as virus controls (virus-infected non-drug-treated cells) while three wells were used as cell controls (non-infected non-drug-treated cells). The culture plates were incubated at 37 °C in 5% CO2 for 2 days. After washing 1 times with 1× PBS, 100 μL of cold (−20 °C) 70% acetone were added to each well and left for 30 min at −20 °C. 70% acetone was removed and 96-well plates were left at dry oven for 30 min. 100 μL of 0.4% (w/v) SRB in 1% acetic acid solution were added to each well and left at room temperature for 30 min. Unbound SRB was removed and the plates were washed 5 times with 1% acetic acid before oven drying and were then left in a dry oven for 1 day. Bound SRB was solubilized with 100 μL of 10 mM unbuffered tris-base solution and plates were left on a table for 30 min. The absorbance was read at 540 nm by using a VERSAmax microplate reader (Molecular Devices, Palo Alto, CA, USA) with a reference absorbance at 620 nm. To calculate the IC50 values, the results were transformed to percentage of controls and the IC50 values were graphically obtained from the dose-response curves. The percent protection achieved by the test compound in HRV2 or HRV3-infected cells was calculated by the following formula: […]
(§3) where (ODt)virus is the optical density measured with a given concentration of the test compound in virus-infected cells; (ODc)virus is the optical density measured for the control untreated virus-infected cells; and (ODc)mock is the optical density measured for control untreated mock-infected cells. The concentration achieving 50% protection according to the formula above was defined as the 50% inhibitory concentration (IC50). The therapeutic index was defined as CC50/IC50. […] Next day, medium was removed and the 96-well plates were replaced with media containing the serially diluted compounds and the cells were further incubated for 48 h. The culture medium was removed and washed with 1× PBS. The next step was conducted by antiviral activity assay above described. To calculate the CC50 values, the results were transformed to percentage of controls and the CC50 values were graphically obtained from the dose-response curves. Ribavirin was used as positive, and dimethyl sulfoxide (DMSO) was used as negative control.

HRV3 [2] = experiment: Microscopic observation of HRV3-induced CPE in HeLa cells; format: cell-based, human rhinovirus; details: HRV3-infected HeLa cells, 20 μg/mL, 32 °C, 2 days
Description: (§4) After a 2-day infection of HeLa cells with HRV2 and HRV3, the effect of compound 1 and compound 3 on HRV-induced cytopathic effect (CPE) investigated.
(§5) Figure 3 The effect of compound 1 or compound 3 on HRV2 (left group; I) and HRV 3 (right group; II)-induced CPE. The virus-infected cells were treated with compound 1 or compound 3 of 20 μg/mL. After incubation at 32 °C in 5% of CO2 for 2 days, the cell morphology was photographed under a microscope.
(§6) Briefly, HeLa cells were seeded onto a 96-well culture plate at a concentration of 2 × 10^4 cells per well. The next day, the medium was removed and washed with PBS. Then, 0.09 mL of diluted virus suspension and 0.01 mL of medium supplemented with 20 mM MgCl2 containing compound 1 or compound 3 of 20 μg/mL were added. After incubation at 32 °C in 5% CO2 for 2 days, the morphology of cells was observed under microscope of 32 × 10 magnifications (St Ernst-Leitz, Wetzlar, Germany), and images were recorded.

HRV2 [3] = experiment: Microscopic observation of HRV2-induced CPE in HeLa cells; format: cell-based, human rhinovirus; details: HRV2-infected HeLa cells, 20 μg/mL, 32 °C, 2 days
Description: as §4, §5, §6

HeLa cells = experiment: Cytotoxicity, SRB method, non-infected HeLa cells, 48 h; format: cell-based, human; details: Table 2, column under HRV3
Description: as §2, §3

[4] = as above; format: cell-based, human; details: human, non-infected HeLa cells, Table 4, read-out: CC50, concentration required to reduce cell growth by 50%
Description: as §2, §3

HRV2 [5] = experiment: Antiviral activity, SRB method using CPE reduction, HRV2-infected HeLa cells; format: cell-based, human rhinovirus; details: for IC50: Human rhinovirus sp., HRV2, HeLa, HRV2 in HeLa cells, mean ± S.D., read-out: IC50, concentration required to inhibit virus-induced cytopathic effect (CPE) by 50%; for TI, therapeutic index = CC50/IC50: HRV2; for antiviral activity against HRV2 (in words): HeLa cells
Description: as §1, §2, §3

Row | IC50 (HRV2 [5]; Table 4) [µg/mL] | SMILES | effect on HRV2-induced visible CPE (HRV2 [3]) | CC50 at 48 h [4] [µg/mL] | antiviral activity against HRV3 (in words) (HRV3 [1]) | antiviral activity against HRV2 (in words) (HRV2 [5]) | also measured
1 | 2.15 ± 0.51 (≈ 8.8 µM) | NC(=O)c1ncn([C@@H]2O[C@H](CO)[C@@H](O)[C@H]2O)n1 [Ribavirin, reference compound] | prevented a CPE | > 20 |  |  | IC50 (HRV3 [1]; Table 2): 14.2 ± 2.2 µg/mL (≈ 58.4 µM); IC50 (HRV3 [1]; Table 4): 5.09 ± 0.6 µg/mL (≈ 20.8 µM); effect on HRV3-induced visible CPE (HRV3 [2]): prevented a CPE; CC50, concentration required to reduce cell growth by 50% (HeLa cells): >20 µg/mL; IC50 (HRV2 [5]; Table 2, ND = maximum inhibition rate under 50%): 17.1 ± 1.48 µg/mL (≈ 70.2 µM)
2 | 2.5 ± 0.66 (≈ 8.39 µM) | OCc1cc(O)c(O)c(Br)c1Br [Compound 1, 2,3-Dibromo-4,5-dihydroxybenzyl alcohol] | inhibited the formation of a visible CPE | > 20 | did not show anti-HRV3 activity |  | TI, therapeutic index = CC50/IC50 (HRV2 [5]; Table 4): 8.00
3 |  | O=Cc1cc(O)c(O)c(Br)c1Br [Compound 2, 2,3-Dibromo-4,5-dihydroxybenzaldehyde] |  |  | no antiviral effect | no antiviral effect | 
4 |  | COCc1cc(O)c(O)c(Br)c1Br [Compound 4, 2,3-Dibromo-4,5-dihydroxybenzyl methyl ether] |  |  | no antiviral effect | no antiviral effect | 
5 |  | COCc1cc(Br)c(O)c(O)c1Br [Compound 5, 2,5-Dibromo-3,4-dihydroxy-benzyl methyl ether] |  |  | no antiviral effect | no antiviral effect | 
6 | 7.11 ± 0.64 (≈ 13.9 µM) | COCc1cc(O)c(O)c(Br)c1Cc1cc(O)c(O)c(Br)c1Br [Compound 3, 2,2′,3-Tribromo-3′,4,4′,5-tetrahydroxy-6′-methoxymethyldiphenylmethane] | inhibited the formation of a visible CPE | > 20 |  |  | IC50 (HRV3 [1]; Table 4): 4.69 ± 0.44 µg/mL (≈ 9.14 µM); TI, therapeutic index = CC50/IC50 (HRV3 [1]; Table 4, HRV3): 4.26; effect on HRV3-induced visible CPE (HRV3 [2]): inhibited the formation of a visible CPE; TI, therapeutic index = CC50/IC50 (HRV2 [5]; Table 4): 2.81
7 |  | Oc1cc(Cc2cc(O)c(O)c(Br)c2Br)c(Br)c(Br)c1O [Compound 6, 2,2′,3,3′-Tetrabromo-4,4′,5,5′-tetrahydroxydiphenylmethane] |  |  | no antiviral effect | no antiviral effect | 

Source: article PMC3497018, “Anti-Human Rhinoviral Activity of Polybromocatechol Compounds Isolated from the Rhodophyta, Neorhodomela aculeata” (Marine Drugs, 2012)
